Patent US8796463B2 (priority 2009, dated 2014)

How the values were obtained:
[1] = log P by HPLC on reversed phase columns (EEC directive 79/831 Annex V.A8); type: physicochemical; settings: pH 2.7, 0.1% formic acid in water / acetonitrile gradient
Description: Measurement of log P values was performed according EEC directive 79/831 Annex V.A8 by HPLC (High Performance Liquid Chromatography) on reversed phase columns with the following method:
measurement of LC-MS was done at pH 2.7 with 0.1% formic acid in water and with acetonitrile (contains 0.1% formic acid) as eluent with a linear gradient from 10% acetonitrle to 95% acetonitrile.
Calibration was done with not branched alkan2-ones (with 3 to 16 carbon atoms) with known log P-values (measurement of log P values using retention times with linear interpolation between successive alkanones). lambda-maX-values were determined using UV-spectra from 200 nm to 400 nm and the peak values of the chromatographic signals.

Phytophthora infestans = type: in vivo; settings: tomato, preventive spray, 100 ppm of active ingredient, evaluated 7 days after inoculation

Compound | logp [1] | Efficacy % (Phytophthora infestans) [%]
Cn1nnnc1C(=NOCc1cccc(NC(=O)C2COc3ccccc32)n1)c1ccccc1 (centres unmarked) [Example 61] | 3.37 | –
Cc1nnnn1C(=NOCc1csc(NC(=O)c2cc(=O)c3ccccc3o2)n1)c1ccccc1 [Example 44] | 3.21 | 95
COc1cccc2c1OC(C(=O)Nc1nc(CON=C(c3ccccc3)c3nnnn3C)cs1)CC2 (centres unmarked) [Example 18] | 3.64 | 95
Cn1nnnc1C(=NOCc1csc(NC(=O)C2Oc3ccccc3O2)n1)c1ccccc1 [Example 48] | 3.29 | 80
Cc1nnnn1C(=NOCc1csc(NC(=O)C2CCc3ccccc3O2)n1)c1ccccc1 (centres unmarked) [Example 32] | 3.83 | 95
Cc1cccc2c1OC(C(=O)Nc1nc(CON=C(c3ccccc3)c3nnnn3C)cs1)CO2 (centres unmarked) [Example 13] | 3.83 | 98
Cc1nnnn1C(=NOCc1csc(NC(=O)C2CCc3cc(I)ccc3O2)n1)c1ccccc1 (centres unmarked) [Example 38] | 4.49 | 95
Cc1nnnn1C(=NOCc1cccc(NC(=O)C2CC(=O)c3cc(F)ccc3O2)n1)c1ccccc1 (centres unmarked) [Example 29] | 3.53 | 90
Cc1nnnn1C(=NOCc1cccc(NC(=O)C2COc3ccc(C(C)(C)C)cc3O2)n1)c1ccccc1 (centres unmarked) [Example 25] | 5.03 | 93
Cc1nnnn1C(=NOCc1cccc(NC(=O)C2COc3ccccc32)n1)c1ccccc1 (centres unmarked) [Example 58] | 3.39 | –
COc1cccc2c1OC(C(=O)Nc1nc(CON=C(c3ccccc3)n3nnnc3C)cs1)CC2 (centres unmarked) [Example 30] | 3.69 | 95
Cc1cccc2c1OC(C(=O)Nc1nc(CON=C(c3ccccc3)n3nnnc3C)cs1)CO2 (centres unmarked) [Example 35] | 3.87 | 95
Cc1nnnn1C(=NOCc1csc(NC(=O)C2CC(=O)c3cc(F)ccc3O2)n1)c1ccccc1 (centres unmarked) [Example 37] | 3.33 | 95
Cn1nnnc1C(=NOCc1csc(NC(=O)C2CCc3ccccc3O2)n1)c1ccccc1 (centres unmarked) [Example 20] | 3.78 | 93
Cc1nnnn1C(=NOCc1cccc(NC(=O)C2CCc3cc(I)ccc3O2)n1)c1ccccc1 (centres unmarked) [Example 21] | 4.81 | 80
Cn1nnnc1C(=NOCc1csc(NC(=O)C2COc3ccccc32)n1)c1ccccc1 (centres unmarked) [Example 49] | 3.19 | –
Cc1ccc2c(c1)OC(C(=O)Nc1cccc(CON=C(c3ccccc3)n3nnnc3C)n1)CO2 (centres unmarked) [Example 26] | 4.11 | 95
Cc1nnnn1C(=NOCc1cccc(NC(=O)c2cc(=O)c3ccccc3o2)n1)c1ccccc1 [Example 43] | 3.33 | 85
Cn1nnnc1C(=NOCc1cccc(NC(=O)c2cc(=O)c3ccccc3o2)n1)c1ccccc1 [Example 59] | 3.27 | 95
COc1cccc2c1OC(C(=O)Nc1cccc(CON=C(c3ccccc3)c3nnnn3C)n1)CC2 (centres unmarked) [Example 3] | 3.92 | 95
Cc1nnnn1C(=NOCc1cccc(NC(=O)C2CCc3ccccc3O2)n1)c1ccccc1 (centres unmarked) [Example 24] | 4.08 | 93
Cc1ccc2c(c1)OC(C(=O)Nc1nc(CON=C(c3ccccc3)n3nnnc3C)cs1)CO2 (centres unmarked) [Example 34] | 3.83 | 95

Compound | logp [1] | Efficacy % (Phytophthora infestans) [%]
Cc1nnnn1C(=NOCc1cccc(NC(=O)C2CCc3cc(F)ccc3O2)n1)c1ccccc1 (centres unmarked) [Example 23] | 4.11 | 90
Cc1nnnn1C(=NOCc1cccc(NC(=O)C2Oc3ccccc3O2)n1)c1ccccc1 [Example 57] | 3.48 | 88
Cn1nnnc1C(=NOCc1cccc(NC(=O)C2COc3ccc(C(C)(C)C)cc3O2)n1)c1ccccc1 (centres unmarked) [Example 6] | 4.92 | 93
Cc1nnnn1C(=NOCc1csc(NC(=O)C2COc3ccc(C(C)(C)C)cc3O2)n1)c1ccccc1 (centres unmarked) [Example 33] | 4.67 | 90
Cn1nnnc1C(=NOCc1csc(NC(=O)C2COc3ccc(C(C)(C)C)cc3O2)n1)c1ccccc1 (centres unmarked) [Example 15] | 4.62 | 90
COc1ccc2c(c1)OC(C(=O)Nc1cccc(CON=C(c3ccccc3)c3nnnn3C)n1)CC2 (centres unmarked) [Example 39] | 3.96 | 95
Cn1nnnc1C(=NOCc1csc(NC(=O)c2cc(=O)c3ccccc3o2)n1)c1ccccc1 [Example 47] | 3.17 | 70
Cc1nnnn1C(=NOCc1csc(NC(=O)C2CCc3cc(F)ccc3O2)n1)c1ccccc1 (centres unmarked) [Example 31] | 3.87 | 95
Cc1nnnn1C(=NOCc1csc(NC(=O)C2Oc3ccccc3O2)n1)c1ccccc1 [Example 46] | 3.31 | 75
Cn1nnnc1C(=NOCc1cccc(NC(=O)C2CCc3cc(F)ccc3O2)n1)c1ccccc1 (centres unmarked) [Example 4] | 4.01 | 95
Cc1cccc2c1OC(C(=O)Nc1cccc(CON=C(c3ccccc3)n3nnnc3C)n1)CO2 (centres unmarked) [Example 27] | 4.15 | 95
COc1cccc2c1OC(C(=O)Nc1cccc(CON=C(c3ccccc3)n3nnnc3C)n1)CC2 (centres unmarked) [Example 22] | 3.99 | 80
Cn1nnnc1C(=NOCc1csc(NC(=O)C2CC(=O)c3cc(F)ccc3O2)n1)c1ccccc1 (centres unmarked) [Example 16] | 3.29 | 93
Cn1nnnc1C(=NOCc1csc(NC(=O)C2COc3ccccc3O2)n1)c1ccccc1 (centres unmarked) [Example 14] | 3.46 | 90
Cc1nnnn1C(=NOCc1csc(NC(=O)C2COc3ccccc3O2)n1)c1ccccc1 (centres unmarked) [Example 36] | 3.51 | 95
Cn1nnnc1C(=NOCc1csc(NC(=O)C2CCc3cc(I)ccc3O2)n1)c1ccccc1 (centres unmarked) [Example 17] | 4.44 | 93
Cc1nnnn1C(=NOCc1cccc(NC(=O)C2COc3ccccc3O2)n1)c1ccccc1 (centres unmarked) [Example 28] | 3.78 | 98
Cn1nnnc1C(=NOCc1cccc(NC(=O)C2CCc3cc(I)ccc3O2)n1)c1ccccc1 (centres unmarked) [Example 2] | 4.7 | 95
Cc1ccc2c(c1)OC(C(=O)Nc1nc(CON=C(c3ccccc3)c3nnnn3C)cs1)CO2 (centres unmarked) [Example 12] | 3.78 | 95
Cn1nnnc1C(=NOCc1cccc(NC(=O)C2CC(=O)c3cc(F)ccc3O2)n1)c1ccccc1 (centres unmarked) [Example 1] | 3.46 | 93
Cn1nnnc1C(=NOCc1csc(NC(=O)C2CCc3cc(F)ccc3O2)n1)c1ccccc1 (centres unmarked) [Example 19] | 3.8 | 95
